≈ marks a conversion by molar mass, not a printed value.
Legend:
Mus musculus [1] = experiment: Toxicity in mouse allografted with mouse Sarcoma 180 cells assessed as mortality at >5 mg/kg, ip on day 1 post challenge; assay type: organism-based; details: in vivo
HeLa = experiment: Cytotoxicity against human HeLa cells assessed as cloning efficiency after 8 hrs; assay type: functional; details: read-out: ID50 (the source's name)
Mus musculus [2] = experiment: Toxicity in mouse allografted with mouse Sarcoma 180 cells assessed as mortality at 2 mg/kg, ip on day 1 post challenge; assay type: organism-based; parameters: dose 2 mg/kg, route intraperitoneal; details: in vivo
Sarcoma-180 [3] = experiment: Antitumor activity against mouse Sarcoma 180 cells allografted in mouse assessed as average survival time at 10 mg/kg, ip on day 1 post challenge relative to untreated control; assay type: functional; details: route intraperitoneal
[4] = Antiproliferative activity against MEF after 72 hrs; assay type: cell-based; details: mouse, MEF cells; read-out: ID50
MEF = experiment: Inhibition of Murine sarcoma virus (Moloney) foci formation in MEF after 72 hrs; assay type: functional; details: Mus musculus, read-out: ID50 (the source's name)
Mus musculus [5] = experiment: Toxicity in mouse allografted with mouse Sarcoma 180 cells assessed as mortality at 10 mg/kg, ip on day 1 post challenge; assay type: organism-based; parameters: dose 10 mg/kg, route intraperitoneal; details: in vivo
Sarcoma-180 [6] = experiment: Antitumor activity against mouse Sarcoma 180 cells allografted in mouse assessed as average survival time at 2 mg/kg, ip on day 1 post challenge relative to untreated control; assay type: functional; details: route intraperitoneal

| SMILES | Activity (Mus musculus [1]) | IC50 (HeLa) [µg/mL] | Activity (Mus musculus [2]) | T/C (Sarcoma-180 [3]) [%] | GI50 at 72 h [4] [µg/mL] | IC50 (MEF) [µg/mL] | Activity (Mus musculus [5]) | T/C (Sarcoma-180 [6]) [%] |
| --- | --- | --- | --- | --- | --- | --- | --- | --- |
| COc1cccc2c1C(=O)c1c(O)c3c(c(O)c1C2=O)C[C@@](O)(C(C)=O)C[C@@H]3O[C@H]1C[C@H](N)[C@@H](O)[C@H](C)O1 | Toxic |  |  |  |  |  |  |  |
| COc1cccc2c1C(=O)c1c(O)c3c(c(O)c1C2=O)C[C@@](O)(C(C)=O)C[C@@H]3O[C@H]1C[C@H](N)[C@@H](O)[C@H](CO)O1.Cl |  | > 10 | Non-toxic | 167 | 0.256 | 0.1 | Non-toxic |  |
| COc1cccc2c1C(=O)c1c(O)c3c(c(O)c1C2=O)C[C@@](O)(C(=O)CO)C[C@@H]3O[C@H]1C[C@H](N)[C@H](O)[C@H](C)O1.Cl [DOXORUBICIN HYDROCHLORIDE] |  | 0.11 |  |  | 0.007 | 0.0025 |  | 210 |
| COc1cccc2c1C(=O)c1c(O)c3c(c(O)c1C2=O)C[C@@](O)(C(C)=O)C[C@@H]3O[C@H]1C[C@H](N)[C@H](O)[C@H](C)O1 [DAUNORUBICIN] |  | 0.013 (≈ 0.0246 µM) |  |  | 0.009 (≈ 0.0171 µM) | 0.0055 (≈ 0.0104 µM) |  | 192 |
| COc1cccc2c1C(=O)c1c(O)c3c(c(O)c1C2=O)C[C@@](O)(C(=O)CO)C[C@@H]3O[C@H]1C[C@H](N)[C@@H](O)[C@H](C)O1 [EPIRUBICIN] | Toxic |  |  |  |  |  |  |  |
| COc1cccc2c1C(=O)c1c(O)c3c(c(O)c1C2=O)C[C@@](O)(C(=O)CO)C[C@@H]3O[C@H]1C[C@H](N)[C@@H](O)[C@H](CO)O1 |  | 1 (≈ 1.79 µM) | Non-toxic | 162 | 0.05 (≈ 0.0894 µM) | 0.025 (≈ 0.0447 µM) | Non-toxic |  |
